In the OPERA property sets (Mansouri et al. 2018):

Structure (SMILES) | logP
CC(=O)NCc1cccc(OCC(O)CNC(C)C)c1 (centres undefined) | 0.34
CCN1CC(C(O)C(CC2CCCCC2)NC(=O)C(Cc2c[nH]cn2)NC(=O)C(CC(=O)N2CCOCC2)Cc2ccccc2)OC1=O (centres undefined) | 2.2
CCCCc1ccc(CC(=O)O)cc1 | 3.25
Cc1cc(=O)oc2c1ccc1occc12 | 2.32
CCN(CC)CCCCCC(=O)Nc1c(C)cccc1C | 2.95
CC(C(N)=O)n1nnc2ccccc21 (centres undefined) | 0.35
CC(=O)OCC1SC(n2ccnc2[N+](=O)[O-])C(OC(C)=O)C(OC(C)=O)C1OC(C)=O (centres undefined) | 0.63
CC(C(=O)O)c1ccc(N2Cc3ccccc3C2=O)cc1 (centres undefined) | 2.77
Cc1ccc(C)c(O)c1C | 2.67
CCOP(N)(=O)ON=C(C#N)c1ccccc1 (centres undefined) | 0.72
NC(=O)c1ccccc1OCc1ccc([N+](=O)[O-])cc1 | 1.73
CCCCNC(=O)NS(=O)(=O)c1ccc(N)cc1 | 1.01
CCCOc1ccc(CC(=O)O)cc1 | 2.31
CC1OC(OC2CCC3(C=O)C4CCC5(C)C(C6=CC(=O)OC6)CCC5(O)C4CCC3(O)C2)C(O)C(O)C1O (centres undefined) | -0.48
CNC1CC2CC1c1ccccc12 (centres undefined) | 2.32
NC1CC1c1ccccc1 (centres undefined) | 1.58
O=C1CN=C(c2ccccc2)c2cc(Br)ccc2N1 | 3.11
CCOC(=O)CC(NC(=O)CCCCSc1ncnc2nc[nH]c12)C(=O)OCC (centres undefined) | 1.33
CC1Cc2ccccc2CN1 (centres undefined) | 1.93
O=C1C(N2CCN(CCO)CC2)=C(N2CC2)C(=O)C(N2CCN(CCO)CC2)=C1N1CC1 | -0.77
CCOC(=O)Cn1nnc2ccccc21 | 1.3
c1ccc(-c2ccc(-c3ccccc3)cc2)cc1 | 6.03
Cc1cnc2n(c1=O)CCCC2 | 0.12
Cc1cc(C)cc(NS(=O)(=O)c2ccc(N)cc2)c1 | 2.52

Structure (SMILES) | logP
CN1CCC(=C2c3ccccc3C=Cc3ccccc32)CC1 | 4.69
CC(C)c1nnc(SCC(=O)c2ccccc2)n(N)c1=O | 2.07
Cc1cc(C)c(O)c(C)c1 | 2.73
C#CCC(O)(c1cccnc1)C1CCCCC1 (centres undefined) | 2.09
COc1ccc(C(=O)CC(C)CC(=O)O)cc1Cl (centres undefined) | 2.6
Nc1ncnc2c1ncn2C1C=CC(CO)O1 (centres undefined) | -0.5
COc1ccc(CCNCC(O)COc2ccc(COCc3ncc[nH]3)cc2)cc1OC (centres undefined) | 1.29
Clc1cccc(Br)c1N=C1NCCN1 | 1.73
CCCCOC(=O)c1cc(=O)[nH]c(=O)[nH]1 | 1.06
NC1CCc2ccccc2C1 (centres undefined) | 2.08
c1ccc(-c2ncc3ccccc3n2)cc1 | 3.42
O=C(OOC(=O)c1ccccc1)c1ccccc1 | 3.46
O=C(O)C=Cc1ccc2c(c1)OCO2 | 2.59
COc1cccc(/C=C/C(=O)O)c1 | 2.37
CNC(Cc1ccccc1)Cc1ccccc1 | 3.8
Oc1ccc(C2(O)CCN(CCCSc3ccc(F)cc3)CC2)cc1 | 4.17
Cc1ccc(N(CCO)CCO)cc1 | 1.09
Cc1cn([C@H]2C[C@H](O)[C@@H](CO)O2)c(=O)[nH]c1=O | -0.93
O=Cc1cccc(Cl)c1 | 2.26
O=[N+]([O-])c1cn(CCN2CCOCC2)cn1 | -0.38
CCCOC(=O)C(C(=O)OCCC)=C1SCCS1 | 3.35
Clc1cc(Cl)cc(-c2ccccc2)c1 | 5.41
CCOc1cccc(NC(=O)CN2CCCCC2)c1 | 3.17
Brc1cccc(N=C2NCCN2)c1Br | 2.16

Structure (SMILES) | logP
CC1OC(OC2C(O)CC(OC3CCC4(C)C(CCC5C4CCC4(C)C(C6=CC(=O)OC6)CCC54O)C3)OC2C)CC(O)C1O (centres undefined) | 2.15
c1ccc(C2CCCN2)cc1 (centres undefined) | 1.89
CCCCCCC(C)(C)c1cc(O)c2c(c1)OC(C)(C)[C@@H]1CC=C(CO)C[C@@H]21 | 7.44
O=C(c1ccc(C(F)(F)F)cc1)c1ccc2n1CCC2C(=O)O (centres undefined) | 3.71
OC1(c2cc(Cl)ccc2Cl)CCCCC1n1cncn1 (centres undefined) | 3.24
CCCCCc1cc(OCCCCN)c2c(c1)OC(C)(C)C1CC=C(C)CC21 (centres undefined) | 8.38
O=C1CCC(c2ccccc2)CC1 | 2.3
C=C(C)C(=O)OCC(O)COc1ccccc1 (centres undefined) | 2.27
CCOP(=O)(NC)ON=C(C#N)c1ccc(Cl)cc1 (centres undefined) | 2.5
C=C1C(=O)OC2C1C(OC(=O)C(C)=CC)CC(O)(CCl)C1C(OC(C)=O)C=C(C)C21O (centres undefined) | 1.42
COc1cc(CCN)cc(OC)c1OCc1ccccc1 | 2.4
CCCCc1ccncc1 | 3.13
CCOC(=O)C(C(=O)OC(C)C)=C1SCCS1 | 2.9
CCOc1ccc(Cc2cnc(N)nc2N)cc1OC | 1.34
FC(F)(c1ccccc1)C(F)(F)c1ccccc1 | 5
COCCNC(=O)COc1ccc(OCCNCC(O)COc2ccccc2)cc1 (centres undefined) | 1.7
COc1cc(OC)c(Cl)c(Cc2cnc(N)nc2N)c1Cl | 2.55
c1ccc(-c2nccs2)cc1 | 2.77
O=C(O)Cc1ccc2c(c1)C(=O)c1ccccc1CS2 | 2.97
C#CC1(O)C(F)CC2C3CCc4cc(O)ccc4C3C(CC)CC21C (centres undefined) | 4.12
O=C(Cn1ccnc1[N+](=O)[O-])N(CCO)CCO | -1.64
COc1cc(C(=O)OC2N=C(c3ccccc3)c3cc(Cl)ccc3NC2=O)cc(OC)c1OC (centres undefined) | 3.75
CN(Cc1ccc(Cl)cc1)N=Nc1ccc(C(=O)O)cc1 | 4.85
O=C1C(Nc2ccccc2)=C(S(=O)(=O)c2ccccc2)C(=O)c2ccccc21 | 3.38

Structure (SMILES) | logP
CCCCCC(=O)OCC(Cc1cncn1C)C(CC)C(=O)OCc1ccccc1 (centres undefined) | 4.75
O=C(O)CN1C(=O)C=CC1=O | -0.14
CC(C)(C)c1ccc(CC(=O)O)cc1 | 2.98
CC(C)(C)c1cc(C2C(=O)c3ccccc3C2=O)cc(C(C)(C)C)c1 | 6.86
CCN1CC(C(O)C(CC2CCCCC2)NC(=O)C(Cc2c[nH]cn2)NC(=O)C(Cc2ccc(OC)cc2)NC(=O)N2CC(OCOCCOC)C(OCOCCOC)C2)OC1=O (centres undefined) | 1.67
CC(=O)C(C)CN1CCCCC1 (centres undefined) | 1.28
N=C(N)NN=Cc1ccccc1 | 1.18
CN1CC=C(c2cccs2)CC1 | 2.51
Cc1c2ccccc2cc2ccccc12 | 5.07
O=C(COc1ccc(OCCNCC(O)COc2ccccc2)cc1)NCc1ccccc1 (centres undefined) | 3.2
c1cc2cccc3c4cccc5cccc(c(c1)c23)c54 | 6.25
Cc1cccc(C)c1NC(=O)CCCCCN | 1.29
COc1c(Br)cc(Br)cc1Br | 4.48
COC(=O)C(C(=O)OC)=C1SCCS1 | 1.51
CCNc1ccc(C(=O)OCCN(C)C)cc1 | 2.62
CCc1nc(N)nc(N)c1-c1ccc(Cl)c(Cl)c1 | 3.03
O=C(O)CCn1ccc2ccccc21 | 2.2
CCC(N)C(=O)Nc1c(C)cccc1C (centres undefined) | 0.84
CCCc1ccc(N)cc1 | 2.4
O=C1C2C3C=CC(C4C=CC43)C2C(=O)N1CCCCN1CCN(c2ncccn2)CC1 (centres undefined) | 1.79
CN(C)c1nc(N(C)C)nc(N(C)O)n1 | 1.61
CNC(C)C(OC)c1ccccc1 (centres undefined) | 2.05
O=C1C[N+]([O-])=C(c2ccccc2)c2cc(Cl)ccc2N1 | 1.49
CCC(C(=O)OCc1ccccc1)C(COC(=O)c1cccnc1)Cc1cncn1C (centres undefined) | 3.05

Structure (SMILES) | logP
Clc1ccc(Cl)c(-c2ccccc2)c1 | 5.1
N[C@@H](Cc1cnccn1)C(=O)O | -2.79
COC(=O)C=COc1ccccc1Cl | 3.02
CSC(C)=NOC(=O)N(C)SN(C(=O)N(C)C)C1CC1 | 2
CCOC(=O)CC[C@H](NC(=O)c1ccc(N(C)Cc2cnc3nc(N)nc(N)c3n2)cc1)C(=O)OCC | 0.98
CC1CCCC(c2ccccc2)(N2CCCCC2)C1 (centres undefined) | 5.86
COCC(O)Cn1cc(Br)nc1[N+](=O)[O-] (centres undefined) | 0.46
CCCN1C(=O)SC(=Cc2ccc([N+](=O)[O-])o2)C1=O | 2.4
CNC(=O)Oc1ccc(N(C)C)c(C)c1 | 1.9
CC(=O)OC1CC2C(CCC3CC(OC4CC(O)C(OC5CC(O)C(OC6CC(O)C(O)C(C)O6)C(C)O5)C(C)O4)CCC32C)C2(O)CCC(C3=CC(=O)OC3)C12C (centres undefined) | 2.29
OC(Cn1ccnc1)(c1ccc(-c2ccccn2)cc1)c1ccc(F)cc1F (centres undefined) | 3.65
Cc1cc(N=O)ccc1O | 1.71
Cc1cccc(C2C(=O)c3ccccc3C2=O)c1 | 3.46
Clc1ccc(-c2cccc(Cl)c2)cc1 | 5.15
CO[C@@]1(NC(=O)CSCC#N)C(=O)N2C(C(=O)O)=C(CSc3nnnn3C)CS[C@@H]21 | -0.6
Cc1ncsc1CCCl | 2.12
Cc1ccc(CCN)cc1 | 1.83
COc1cc(S(C)=O)ccc1-c1nc2ncccc2[nH]1 (centres undefined) | 1.18
Nc1c([N+](=O)[O-])ccc2ncccc12 | 1.61
Cc1nc(Cl)c(C#N)cc1-c1ccccc1 | 3.24
O=C(c1c(F)cccc1F)c1ccc2n1CCC2C(=O)O (centres undefined) | 2.47
Clc1ccc(-c2ccccc2)cc1Cl | 5.29
CCCNC(=O)COc1ccc(OCCNCC(O)COc2ccccc2)cc1 (centres undefined) | 2.4
CCCCCCC(C)(C)c1cc(O)c2c(c1)OC(C)(C)C1CCC(C=O)=CC21 (centres undefined) | 8.03

Structure (SMILES) | logP
COc1cc(Br)c(Cc2cnc(N)nc2N)cc1OC | 1.64
Cc1coc2ccc3ccc(=O)oc3c12 | 2.38
CCCCCCCCc1ccc(C2C(=O)c3ccccc3C2=O)cc1 | 6.93
c1ccc2c(c1)ccc1cccnc12 | 3.43
CC(=O)c1ccc(C(O)(Cn2ccnc2)c2ccc(-c3ccncc3)cc2)cc1 (centres undefined) | 2.41
Cc1cc2ccccc2o1 | 3.22
C=CCOc1ccc(C(=O)c2ccc3n2CCC3C(=O)O)cc1 (centres undefined) | 3.48
OC(CCN1CCCCC1)(c1ccccc1)C1CCCCC1 (centres undefined) | 4.49
COc1ccc(CCOC(=O)C(N)Cc2ccc(O)c(O)c2)cc1 (centres undefined) | 1.69
O=C1NC(=O)C(c2ccccc2)C(=O)N1 | -0.17
CC(C)(C)c1cccc(C2C(=O)c3ccccc3C2=O)c1 | 4.88
O=C(NCCNCC(O)COc1ccc(-c2ncc[nH]2)cc1)Nc1ccccc1 (centres undefined) | 1.19
N#CC(CCN1CCC(C(N)=O)(N2CCCCC2)CC1)(c1ccccc1)c1ccccc1 | 3.91
CCCCCC1Nc2cc(C(F)(F)F)c(S(N)(=O)=O)cc2S(=O)(=O)N1 (centres undefined) | 2.66
Nc1nc(-c2ccccn2)cc2ccccc12 | 2.74
c1ccc(-c2nc3ccccc3o2)cc1 | 3.67
O=C(Cc1ccccc1)c1ccc2n1CCC2C(=O)O (centres undefined) | 2.52
O=C1c2ccccc2C(=O)C1c1ccc(Cl)cc1 | 3.61
CCCn1c(=O)[nH]c(=O)c2[nH]cnc21 | 0.33
